Data: paper PMC4924691, “Inhibition of the p53/hDM2 protein-protein interaction by cyclometallated iridium(III) compounds” (Oncotarget, 2016)

Tests used:
MD-MBA-231 = conditions: read-out: IC50 (MTT), MD-MBA-231; human breast carcinoma, p53 mut, 72 h
Protocol: (§1) The cytotoxicity of 1 towards ten cancers cell lines with different p53 statuses (wt, mut or null) was subsequently examined assessed using the MTT assay (Supplementary Table S2).
(§2) Inhibition of cell growth was measured using the MTT reagent (3-(4, 5-dimethylthiazol-2-yl)-2, 5-diphenyltetrazolium bromide). Different cell lines with variable expression levels of p53 protein (A375, A549, HeLa, A2780, A431, MCF7, MD-MBA-231, MD-MBA-468, T47D and H1299 cell lines) were plated onto 96-well plates at a density of 4, 000 cells/well overnight prior to the addition of 1 at different concentrations ranging from 0.01–100 μM for a further 72 h. 10 μL MTT reagent (5 mg/mL) was added to the wells and the cells were incubated for an additional 4 h before 100 μL of DMSO was added to the wells. The absorbance of each well was read on a SpectraMax M5 microplate reader (Molecular Devices) at the wavelength of 570 nm.

T47D = conditions: read-out: IC50 (MTT), T47D; human breast carcinoma, p53 mut, 72 h
Protocol: as §1, §2

A431 = conditions: read-out: IC50 (MTT), A431; human colon carcinoma (so in the source), p53 wt, 72 h
Protocol: as §1, §2

A549 = conditions: read-out: IC50 (MTT), A549; human lung carcinoma, p53 wt, 72 h
Protocol: as §1, §2

H1299 = conditions: read-out: IC50 (MTT), H1299; human lung carcinoma, p53 null, 72 h
Protocol: as §1, §2

MD-MBA-468 = conditions: read-out: IC50 (MTT), MD-MBA-468; human breast carcinoma, p53 mut, 72 h
Protocol: as §1, §2

HeLa = conditions: read-out: IC50 (MTT), HeLa; human cervix carcinoma, p53 wt, 72 h
Protocol: as §1, §2

MCF7 = conditions: read-out: IC50 (MTT), MCF7; human breast carcinoma, p53 wt, 72 h
Protocol: as §1, §2

A2780 = conditions: read-out: IC50 (MTT), A2780; human ovarian carcinoma, p53 wt, 72 h
Protocol: as §1, §2

A375 = conditions: read-out: IC50 (MTT), A375; human malignant melanoma, p53 wt, 72 h
Protocol: as §1, §2

A375 cells = conditions: 0.3 μM, 6 h
Protocol: (§3) Transactivation of p53 restricts cellular proliferation by inducing apoptosis and cycle arrest. Therefore, a terminal deoxynucleotidyl transferase (TdT)-mediated dUTP nick and labelling (TUNEL) and Hoechst staining assay were then performed to investigate DNA fragmentation, a hallmark of apoptosis, in apoptotic cells. […] Finally, the effect of 1 on caspase-3/7, an apoptotic executioner under the control of p53, was investigated in A375 cells using a homogeneous luminescence assay.

caspase-3/7 = conditions: A375 cells, 6 h, dose-dependent
Protocol: as §3

p53/hDM2 interaction [1] = system: T1, p53/hDM2 interaction; experiment: Pull-down assay of p53-Flag/hDM2-myc in A375 cells; format: cell-based, human; conditions: for amount of precipitated hDM2 (pulled down with p53-Flag): 6 h of treatment; for effect of isolated ligands on the p53/hDM2 interaction: Supplementary Figure S4
T1 construct: host or cells: A375 cells
Protocol: A pull-down assay was conducted to further examine the effect of 1 on the p53/hDM2 interaction. A375 cells were co-transfected with cDNAs encoding p53-Flag and hDM2-myc fusion proteins. After 6 h of treatment with NVP-CGM097 or 1, p53/hDM2 complexes were immunoprecipitated using anti-Flag magnetic beads and analysed by immunoblotting.
A375 cells seeded in 6-well plates were co-transfected with pcDNA-Flag-p53 (Addgene) and pCMV-myc3-hDM2 (Addgene) for 6 h using TurboFect transfection reagent following the instruction from manufacturer. Cells were then cultured in Dulbecco's Modified Eagle's Medium (DMEM) complete medium overnight. Serial dilutions of organometallic compounds in low FBS buffer were placed into the wells, and incubated with cells for additional 6 h. Protein samples were collected, and the concentration in the supernatant was determined with the bicinchoninic acid (BCA) method. The […] of p53/hDM2 in the protein samples were pulled down using anti-Flag magnetic beads to capture the FLAG fusion proteins (Sigma) as previously described. The protein-binding beads were washed three time with TBS buffer (50 mM Tris HCl, 150 mM NaCl, pH 7.4) to remove non-specifically bound proteins, and subsequently subjected to the sodium dodecyl sulfate-polyacrylamide gel electrophoresis (SDS-PAGE) by detection with anti-Flag (1:1000, Sigma-Aldrich) and anti-myc antibodies (1:1000, Beyotime).

[2] = system: p53-driven luciferase activity; conditions: A375 cells carrying endogenous wt p53, 6 h
p53/hDM2 interaction [3] = target: T2, p53/hDM2 interaction (Homo sapiens, UniProt Q00987); experiment: Fluorescence anisotropy (FA) assay, displacement of p53_15–31Flu from hDM2_17–126; format: binding; conditions: for IC50 / IC50 against the p53/hDM2 interaction as determined by a FA assay: 150 nM hDM2_17–126, 50 nM p53_15–31Flu, 30 min, room temperature; for IC50: read-out: IC50 against the p53/hDM2 interaction as determined by a FA assay; for effect on fluorescence anisotropy / p53/hDM2 interaction: serial dilutions of compound, hDM2_17–126 with p53_15–31Flu
T2 construct: Expression of hDM2_17–126 recombinant fragment was performed as described previously; made in house
Protocol: To experimentally test the library of the organo-metallic iridium(III) compounds as p53/hDM2 PPI inhibitors, a fluorescence anisotropy (FA) assay was performed as previously described. hDM2_17–126 (recombinant fragment) was incubated with fluorescein-labelled p53 peptide (p53_15–31Flu) and serial dilutions of the organometallic iridium(III) compounds.
Figure 2 FA titration data of 1 1 was incubated with 150 nM hDM2_17–126 recombinant fragment and 50 nM fluorescein-labelled p53 peptide (p53_15–31Flu), and fluorescence anisotropy was measured at 480ex/535em.
Expression of hDM2_17–126 recombinant fragment was performed as described previously. Fluorescence anisotropy assays were used to study the displacement of p53 from hDM2 by organometallic compounds. The experiments were performed in triplicate in a volume of 60 μL of the assay buffer (40 mM Na3PO4, pH 7.50, 200 mM NaCl, 0.02 mg/mL BSA) in black flat-bottom 384-well plates. Different concentrations of organometallic compounds were diluted in the assay buffer containing 150 nM hDM2 and 50 nM p53_15–31Flu (Ac-[…](Flu)-NH2, Peptide Protein Research Ltd.) and incubated at room temperature for 30 min. The intensity and anisotropy was monitored at 480ex/535em ([…] bandwidth) using a Perkin Elmer EnvisionTM 2103 MultiLabel plate reader. The data was analyzed according to published methods.

p53/hDM2 PPI = p53/hDM2 PPI (Homo sapiens, UniProt Q00987); conditions: read-out: IC50, decrease of BRET (p53-HaloTag / NanoLuc-hDM2); A375 cells, 6 h
[4] = 298 K
Description: (1 picture or pasted object on this page, not shown here) […]

[5] = system: p53 and hDM2 protein expression levels; experiment: Immunoblotting of p53 and hDM2 protein expression in A375 cells; format: cell-based, human; conditions: for effect on hDM2 and p53 protein expression levels: 6 h, up to the highest concentration of 1 μM
Protocol: To assess whether 1 suppressed p53 or hDM2 protein expression levels, resulting in a decrease in the levels of precipitated protein detected in the pull-down assay, an immunoblotting experiment was performed.

GADD45α, PUMA, p21 = conditions: A375 cells
Protocol: as §3
A375 cells seeded in 6-well plates were treated with vehicle, NVP-CGM097 or different concentrations of 1 for 6 h. Cells were then harvested and the quantity of each protein samples was measured by the BCA method. Same aliquot (30 μg) of each protein sample was separated by SDS-PAGE according to the reported procedure of immunoblotting. The signals were visualized using Enhanced chemiluminescent Plus reagents (GE Healthcare) and analyzed by Image Lab. The primary antibodies used were: anti-PUMA (1:500, Santa Cruz), anti-GADD45α (1:500, Santa Cruz), anti-p21 (1:500, Santa Cruz), anti-GAPDH (1:500, Santa Cruz), anti-p53 (1:500, Santa Cruz) and anti-hDM2 antibodies (1:500, Santa Cruz).

[6] = target: T3, hDM2(17-126) recombinant fragment (human, UniProt Q00987 17-126); experiment: fluorescence polarisation; fluorescence anisotropy competition: 150 nM hDM2(17-126) and 50 nM p53(15-31)Flu with serial dilutions of iridium(III) compounds; 40 mM Na3PO4 pH 7.50, 200 mM NaCl, 0.02 mg/mL BSA; room temperature, 30 min; 480ex/535em; conditions: both partners purified
T3 construct: human double minute 2 protein (hDM2, MDM2), human, residues 17-126; also called human double minute 2 protein; source: recombinant fragment, expressed as described previously [33]

## CCc1ccc2[c](c1)[Ir-3]13([c]4cc(CC)ccc4-c4cccc[n+]41)([n+]1ccccc1-2)[n+]1ccc(Cl)c2ccc4c(Cl)cc[n+]3c4c21.F[P-](F)(F)(F)(F)F [Compound 1, 4,7-dichloro-1, 10-phenanthrolinebis(2-(4-ethylphenyl)pyridine)iridium(III) hexafluorophosphate]
MD-MBA-231
  IC50: 835 ± 42.9 nM
T47D
  IC50: 783 ± 483 nM
A431
  IC50: 416 ± 37.4 nM
A549
  IC50: 232 ± 21.8 nM
H1299
  IC50: 2200 ± 38.3 nM
MD-MBA-468
  IC50: 1890 ± 23.3 nM
HeLa
  IC50: 480 ± 44.7 nM
MCF7
  IC50: 547 ± 41 nM
A2780
  IC50: 495 ± 32 nM
A375
  IC50: 647 ± 35.4 nM
A375 cells
  DNA fragmentation (TUNEL): induce DNA fragmentation
caspase-3/7
  caspase-3/7 activities: significantly activate
p53/hDM2 interaction [1]
  amount of precipitated hDM2 (pulled down with p53-Flag): decreased
[2]
  p53-dependent luciferase activity: increase
p53/hDM2 interaction [3]
  IC50: 16000 nM
  effect on fluorescence anisotropy / p53/hDM2 interaction: decreased significantly
p53/hDM2 PPI
  IC50: ~1000 nM
[4]; 80% acetonitrile/20% Tris-HCl buffer, 20 μM
  time stable in solution (UV-Vis): at least 7 days
[4]; 90% [d6] DMSO/10% D2O, 5 mM
  time stable in solution (1H NMR): at least 7 days
[5]
  effect on hDM2 and p53 protein expression levels: no effect
GADD45α, PUMA, p21
  expression of GADD45α: significantly increased
  expression of PUMA: significantly increased
  expression of p21: induced

## F[P-](F)(F)(F)(F)F.[Ir+3].[c-]1ccccc1-n1cccn1.[c-]1ccccc1-n1cccn1.c1ccc(-c2ccccn2)nc1 [Compound 3, 2, 2′-bipyridinebis(1-phenyl-1H-pyrazole)iridium(III) hexafluorophosphate]
p53/hDM2 interaction [3]
  IC50 against the p53/hDM2 interaction as determined by a FA assay: No noticeable binding
  effect on fluorescence anisotropy / p53/hDM2 interaction: no noticeable effect

## Clc1cc2ccc[n+]3c2c2c1ccc[n+]2[Ir-3]312([c]3ccccc3-c3sc4ccccc4[n+]31)[c]1ccccc1-c1sc3ccccc3[n+]12.F[P-](F)(F)(F)(F)F [Compound 4, 5-chloro-1, 10-phenanthrolinebis(2-phenylbenzo[d]thiazole)iridium(III) hexafluorophosphate]
p53/hDM2 interaction [3]
  IC50 against the p53/hDM2 interaction as determined by a FA assay: No noticeable binding
  effect on fluorescence anisotropy / p53/hDM2 interaction: no noticeable effect

## F[P-](F)(F)(F)(F)F.c1cc[c]2c(c1)-c1ccc3ccccc3[n+]1[Ir-3]213([c]2ccccc2-c2ccc4ccccc4[n+]21)[n+]1cccc2c4nccnc4c4ccc[n+]3c4c21 [Compound 5, pyrazino[2,3-f][1, 10]phenanthrolinebis(2-phenylquinoline)iridium(III) hexafluorophosphate]
p53/hDM2 interaction [3]
  IC50: 21000 nM
  effect on fluorescence anisotropy / p53/hDM2 interaction: decreased significantly

## Clc1cc2nc3c4cccnc4c4ncccc4c3nc2cc1Cl.F[P-](F)(F)(F)(F)F.Fc1c[c-]c(-c2ccccn2)c(F)c1.Fc1c[c-]c(-c2ccccn2)c(F)c1.[Ir+3] [Compound 6, 11, 12-dichlorodipyrido[3,2-a:2′,3′-c]phenazinebis(2-(2,4-difluorophenyl)pyridine)iridium(III) hexafluorophosphate]
p53/hDM2 interaction [3]
  IC50: 33000 nM
  effect on fluorescence anisotropy / p53/hDM2 interaction: decreased significantly

## COc1cc2c(cc1OC(C)C)[C@H](c1ccc(Cl)cc1)N(c1ccc(N(C)C[C@H]3CC[C@H](N4CCN(C)C(=O)C4)CC3)cc1)C(=O)C2 [NVP-CGM097, reference compound]
p53/hDM2 interaction [1]
  amount of precipitated hDM2 (pulled down with p53-Flag): decreased
[5]; 1 μM
  expression of hDM2 protein: significantly increased

## Clc1ccnc2c1ccc1c(Cl)ccnc12 [dcphen, 4,7-dichloro-1, 10-phenanthroline]
p53/hDM2 interaction [1]
  effect of isolated ligands on the p53/hDM2 interaction: Neither eppy nor dcphen ligands were found to have a significant effect
[5]
  effect on hDM2 and p53 protein expression levels: Neither eppy nor dcphen ligands were found to have a significant effect

## CCc1ccc(-c2ccccn2)cc1 [eppy, 2-(4-ethylphenyl)pyridine]
p53/hDM2 interaction [1]
  effect of isolated ligands on the p53/hDM2 interaction: Neither eppy nor dcphen ligands were found to have a significant effect
[5]
  effect on hDM2 and p53 protein expression levels: Neither eppy nor dcphen ligands were found to have a significant effect

B1: fluorescein-labelled p53 peptide (p53 15-31 Flu) (peptide)
peptide: SQETFSDLWKLLPENNVC
modifications: N-terminal acetyl (Ac-); fluorescein on the C-terminal cysteine, C(Flu); C-terminal amide (-NH2)
notes: added C-terminal cysteine that carries the fluorescein; not part of p53 15-31; source: synthetic peptide, bought: Peptide Protein Research Ltd
[6]
  binding result: binds
